Measured values reported in ChEMBL document CHEMBL1154344, “New quaternary ammonium oxicam derivatives: synthesis and in vitro antiosteoarthritis evaluation” (2010).
Calls of active or inactive are those of the source. No cut-off for these calls is given here.

Key:
Bos taurus [1] = species: Bos taurus; test: (§1) Antiosteoarthritis activity in bovine articular chondrocytes assessed as inhibition of IL1-induced reduction of aggrecan mRNA expression at 1 uM after 5 days by Northern blot analysis relative to control; type: functional
Bos taurus [2] = species: Bos taurus; test: (§2) Antiosteoarthritis activity in bovine articular chondrocytes assessed as induction of aggrecan mRNA expression at 1 uM after 5 days by Northern blot analysis relative to control; type: functional
Bos taurus [3] = species: Bos taurus; test: (§3) Antiosteoarthritis activity in bovine articular chondrocytes assessed as inhibition of IL1-induced reduction of aggrecan mRNA expression at 0.1 uM after 5 days by Northern blot analysis relative to control; type: functional
Bos taurus [4] = species: Bos taurus; test: (§4) Antiosteoarthritis activity in bovine articular chondrocytes assessed as induction of aggrecan mRNA expression at 10 uM after 5 days by Northern blot analysis relative to control; type: functional
Bos taurus [5] = species: Bos taurus; test: (§5) Antiosteoarthritis activity in bovine articular chondrocytes assessed as induction of aggrecan mRNA expression at 0.1 uM after 5 days by Northern blot analysis relative to control; type: functional
Bos taurus [6] = species: Bos taurus; test: (§6) Antiosteoarthritis activity in bovine articular chondrocytes assessed as inhibition of IL1-induced reduction of aggrecan mRNA expression at 10 uM after 5 days by Northern blot analysis relative to control; type: functional
Bos taurus [7] = species: Bos taurus; test: Induction of TGF receptor type 1 mRNA expression in bovine articular chondrocytes at 1 uM after 5 days by RT-PCR analysis; type: functional, cell-based
Bos taurus [8] = species: Bos taurus; test: Induction of TGF receptor type 1 mRNA expression in bovine articular chondrocytes at 10 uM after 5 days by RT-PCR analysis in presence of IL-1; type: functional, cell-based
Bos taurus [9] = species: Bos taurus; test: Induction of TGF-beta1 mRNA expression in bovine articular chondrocytes at 10 uM after 5 days by RT-PCR analysis; type: functional, cell-based
Bos taurus [10] = species: Bos taurus; test: Induction of TGF-beta1 mRNA expression in bovine articular chondrocytes at 1 uM after 5 days by RT-PCR analysis; type: functional, cell-based
[11] = Induction of TGF-beta2 mRNA expression in bovine articular chondrocytes at 1 uM after 5 days by RT-PCR analysis relative to control; type: functional, Bos taurus
[12] = Induction of TGF receptor type 2 mRNA expression in bovine articular chondrocytes at 1 uM after 5 days by RT-PCR analysis relative to control; type: functional, Bos taurus
[13] = Antiosteoarthritis activity in bovine articular chondrocytes assessed as inhibition of IL1-induced reduction of aggrecan mRNA expression at 0.1 uM after 5 days by RT-PCR analysis relative to control; type: functional; details: Bos taurus, 120 h
[14] = (§7) Antiosteoarthritis activity in bovine articular chondrocytes assessed as induction of aggrecan mRNA expression at 10 uM after 5 days by RT-PCR analysis relative to control; type: functional, Bos taurus
Bos taurus [15] = species: Bos taurus; test: as §7; type: functional
[16] = Antiosteoarthritis activity in bovine articular chondrocytes assessed as inhibition of IL1-induced reduction of aggrecan mRNA expression at 1 uM after 5 days by RT-PCR analysis relative to control; type: functional; details: Bos taurus, 120 h
[17] = Induction of TGF-beta2 mRNA expression in bovine articular chondrocytes at 10 uM after 5 days by RT-PCR analysis relative to control; type: functional, Bos taurus
Bos taurus [18] = species: Bos taurus; test: Induction of TGF-beta1 mRNA expression in bovine articular chondrocytes at 1 uM after 5 days by RT-PCR analysis in presence of IL-1; type: functional, cell-based
Bos taurus [19] = species: Bos taurus; test: Antiosteoarthritis activity in bovine articular chondrocytes assessed as restoration of IL-1-inuced inhibition of proteoglycans biosynthesis at 0.1 to 10 uM; type: functional, cell-based
[20] = Induction of TGF receptor type 2 mRNA expression in bovine articular chondrocytes at 10 uM after 5 days by RT-PCR analysis relative to control; type: functional, Bos taurus
Bos taurus [21] = species: Bos taurus; test: Induction of TGF receptor type 1 mRNA expression in bovine articular chondrocytes at 1 uM after 5 days by RT-PCR analysis in presence of IL-1; type: functional, cell-based
Bos taurus [22] = species: Bos taurus; test: Induction of TGF-beta1 mRNA expression in bovine articular chondrocytes at 10 uM after 5 days by RT-PCR analysis in presence of IL-1; type: functional, cell-based
Bos taurus [23] = species: Bos taurus; test: Induction of TGF receptor type 1 mRNA expression in bovine articular chondrocytes at 10 uM after 5 days by RT-PCR analysis; type: functional, cell-based
[24] = as §2; type: functional, Bos taurus
[25] = as §5; type: functional, Bos taurus
[26] = as §6; type: functional, Bos taurus; set-up: scale not given: the % may be the effect or the level left
[27] = as §1; type: functional, Bos taurus; set-up: scale not given: the % may be the effect or the level left
[28] = as §3; type: functional, Bos taurus; set-up: scale not given: the % may be the effect or the level left
[29] = as §4; type: functional; details: Bos taurus, 120 h; values are per cent of control

Structure (SMILES) | Activity (Bos taurus [1]) | Activity (Bos taurus [2]) | Activity (Bos taurus [3]) | Activity (Bos taurus [4]) | Activity (Bos taurus [5]) | Activity (Bos taurus [6]) | Activity [25] [%] | other results
CN1C(C(=O)NCCCC[N+](C)(C)C)=C(O)c2ccccc2S1(=O)=O | inactive | inactive | inactive | inactive | inactive | inactive | – | –
CN1C(C(=O)NCCC[N+](C)(C)C)=C(O)c2ccccc2S1(=O)=O.[I-] | – | – | – | – | – | – | – | Activity (Bos taurus [7]): inactive; Activity (Bos taurus [8]): inactive; Activity (Bos taurus [9]): inactive; Activity (Bos taurus [10]): inactive; Activity [11]: 30%; Activity [12]: 45%; inhibition at 0.1 µM [13]: 150%; Activity [14]: 62%; Activity (Bos taurus [15]): Active; inhibition at 1 µM [16]: 63%; Activity [17]: 37%; Activity (Bos taurus [18]): inactive; Activity (Bos taurus [19]): Active; Activity [20]: 18%; Activity (Bos taurus [21]): inactive; Activity (Bos taurus [22]): inactive; Activity (Bos taurus [23]): inactive
CN1C(C(=O)Nc2ccccn2)=C(O)c2ccccc2S1(=O)=O [PIROXICAM] | Active | – | Active | – | – | Active | 23 | Activity [24]: 37%
CN1C(C(=O)NCCC[n+]2ccccc2)=C(O)c2ccccc2S1(=O)=O | inactive | inactive | inactive | inactive | inactive | inactive | – | –
CC[N+](C)(C)CCCNC(=O)C1=C(O)c2ccccc2S(=O)(=O)N1C | inactive | inactive | inactive | inactive | inactive | inactive | – | –
CN(C)CCCNC(=O)C1=C(O)c2ccccc2S(=O)(=O)N1C [PROPOXICAM] | Active | – | Active | – | – | Active | 25 | Activity [24]: 25%; Activity (Bos taurus [7]): inactive; Activity (Bos taurus [8]): inactive; Activity (Bos taurus [9]): inactive; Activity (Bos taurus [10]): inactive; Activity [11]: 31%; Activity [26]: 65%; Activity [17]: 22%; Activity (Bos taurus [18]): inactive; Activity (Bos taurus [21]): inactive; Activity (Bos taurus [22]): inactive; Activity (Bos taurus [23]): inactive
CC[N+](CC)(CC)CCCNC(=O)C1=C(O)c2ccccc2S(=O)(=O)N1C | inactive | inactive | inactive | inactive | inactive | inactive | – | –
CC[N+](C)(CC)CCCNC(=O)C1=C(O)c2ccccc2S(=O)(=O)N1C.[I-] | Active | – | Active | – | – | Active | 31 | Activity [27]: 130%; Activity [28]: 216%; response, % of control at 10 µM [29]: 216%; Activity [14]: 31%; inhibition at 1 µM [16]: 130%; Activity (Bos taurus [19]): Active
